# Values quoted from earlier work, collected in patent publication US9072768B2, “Composition and method for increasing effectiveness of radiation or chemotherapy” (Kibow Biotech, Inc., priority 2013, dated 2015).
# Test system: colorectal cancer
# Conditions: adjuvant treatment, stage III patients
smiles,measurement,value
O=c1[nH]cc(F)c(=O)[nH]1 [5-Fluorouracil],improvement of absolute 5-year survival,approximately 10%
